This is an account of results in ChEMBL document CHEMBL5375952, “Discovery of Novel 8-Hydroxyquinoline Derivatives with Potent In Vitro and In Vivo Antifungal Activity” (J Med Chem, 2023).

One may read the MIC as the least concentration at which growth counts as inhibited. One may read the IC50 as the midpoint of a concentration-inhibition curve.

Values after ≈ are worked out from the molar mass of the structure shown.

The subject of series [1] is Candida albicans. As to the kind of experiment: Antifungal activity against Candida albicans SC5314 assessed as fungal growth inhibition incubated for 48 hrs by broth microdilution method. Format: functional. In general terms: In broth dilution the organism is exposed to a series of concentrations in liquid medium.
The test system of series [2] is Candida albicans. As to the kind of experiment: Antifungal activity against Candida albicans 22 assessed as fungal growth inhibition incubated for 48 hrs by broth microdilution method. In kind it is functional.
The subject of series [3] is Candida albicans. As to the kind of experiment: Antifungal activity against Candida albicans 21 assessed as fungal growth inhibition incubated for 48 hrs by broth microdilution method. In kind it is functional.
Series [4] can be described thus: Cytotoxicity against human Caco-2 cells assessed as cell growth inhibition incubated for 24 hrs by CCK8 assay. Format: toxicity, cell-based.
Series [5] deals with Cryptococcus neoformans. As to the kind of experiment: Antifungal activity against Cryptococcus neoformans 443 assessed as fungal growth inhibition incubated for 48 hrs by broth microdilution method. Format: functional.
Series [6] concerns Aspergillus fumigatus. As to the kind of experiment: Antifungal activity against Aspergillus fumigatus A assessed as fungal growth inhibition incubated for 48 hrs by broth microdilution method. In kind it is functional.
The subject of series [7] is Candida tropicalis. As to the kind of experiment: Antifungal activity against Candida tropicalis 184 assessed as fungal growth inhibition incubated for 48 hrs by broth microdilution method. Format: functional.
Series [8] relates to Nakaseomyces glabratus. As to the kind of experiment: Antifungal activity against Candida glabrata 201 assessed as fungal growth inhibition incubated for 48 hrs by broth microdilution method. In kind it is functional.
The test system of series [9] is Candida tropicalis. Briefly: Antifungal activity against Candida tropicalis 178 assessed as fungal growth inhibition incubated for 48 hrs by broth microdilution method. Format: functional.
The test system of series [10] is Pichia kudriavzevii. Briefly: Antifungal activity against Candida krusei 477 assessed as fungal growth inhibition incubated for 48 hrs by broth microdilution method. In kind it is functional.
Series [11] has as its system Aspergillus fumigatus. Briefly: Antifungal activity against Aspergillus fumigatus 7544 assessed as fungal growth inhibition incubated for 48 hrs by broth microdilution method. In kind it is functional.
Series [12] has as its system Nakaseomyces glabratus. Briefly: Antifungal activity against Candida glabrata 202 assessed as fungal growth inhibition incubated for 48 hrs by broth microdilution method. Format: functional.
For series [13], the system named is Pichia kudriavzevii. As to the kind of experiment: Antifungal activity against Candida krusei 69 assessed as fungal growth inhibition incubated for 48 hrs by broth microdilution method. Format: functional.
For series [14], the system named is Aspergillus fumigatus. As to the kind of experiment: Antifungal activity against Aspergillus fumigatus 023-12 assessed as fungal growth inhibition incubated for 48 hrs by broth microdilution method. In kind it is functional.
In series [15] the test system is Nakaseomyces glabratus. As to the kind of experiment: Antifungal activity against Candida glabrata 205 assessed as fungal growth inhibition incubated for 48 hrs by broth microdilution method. In kind it is functional.
The test system of series [16] is Cryptococcus neoformans. Briefly: Antifungal activity against Cryptococcus neoformans 445 assessed as fungal growth inhibition incubated for 48 hrs by broth microdilution method. In kind it is functional.
Series [17] relates to Pichia kudriavzevii. As to the kind of experiment: Antifungal activity against Candida krusei 68 assessed as fungal growth inhibition incubated for 48 hrs by broth microdilution method. Format: functional.
In series [18] the test system is Candida parapsilosis. Briefly: Antifungal activity against Candida parapsilosis 107 assessed as fungal growth inhibition incubated for 48 hrs by broth microdilution method. The note with it: Lodderomyces parapsilosis. In kind it is functional.
In series [19] the test system is Candida tropicalis. As to the kind of experiment: Antifungal activity against Candida tropicalis 176 assessed as fungal growth inhibition incubated for 48 hrs by broth microdilution method. In kind it is functional.
The test system of series [20] is Candida parapsilosis. Briefly: Antifungal activity against Candida parapsilosis 125 assessed as fungal growth inhibition incubated for 48 hrs by broth microdilution method. Format: functional. Conditions: Lodderomyces parapsilosis.
The test system of series [21] is Cryptococcus neoformans. Briefly: Antifungal activity against Cryptococcus neoformans 444 assessed as fungal growth inhibition incubated for 48 hrs by broth microdilution method. In kind it is functional.
Series [22] relates to Candida parapsilosis. Briefly: Antifungal activity against Candida parapsilosis 105 assessed as fungal growth inhibition incubated for 48 hrs by broth microdilution method. In kind it is functional. Conditions: Lodderomyces parapsilosis.

As to `CC(C)C(=O)NC(c1ccc(Cl)cc1)c1ccc2cccnc2c1O` (stereo not given), the MIC in the series with Candida albicans [1] is 1 µg/mL (≈ 2.82 µM); with Candida albicans [2] it was 0.5 µg/mL (≈ 1.41 µM); in the series on Candida albicans [3] it was 0.25 µg/mL (≈ 0.705 µM).
For `CC(C)C(=O)NC(c1ccc(OC(F)F)cc1)c1ccc2cccnc2c1O` (stereo not given), the MIC is 1 µg/mL (≈ 2.59 µM) with Candida albicans [1], 0.5 µg/mL (≈ 1.29 µM) in the series on Candida albicans [2] and 0.5 µg/mL (≈ 1.29 µM) in the series with Candida albicans [3].
Regarding `CC(C)C(=O)NC(c1ccc(S(C)(=O)=O)cc1)c1ccc2cccnc2c1O` (stereo not given), the minimal inhibitory concentration (MIC) was found to be 2 µg/mL (≈ 5.02 µM) in the series with Candida albicans [1], 1 µg/mL (≈ 2.51 µM) with Candida albicans [2] and 2 µg/mL (≈ 5.02 µM) with Candida albicans [3].
As for `CN(C)c1ccc(C(NC(=O)Cc2ccccc2)c2ccc3cccnc3c2O)cc1` (stereo not given), the results for the MIC in the series with Candida albicans [1], with Candida albicans [2] and with Candida albicans [3] were 0.25 µg/mL (≈ 0.608 µM), 2 µg/mL (≈ 4.86 µM) and 0.5 µg/mL (≈ 1.22 µM), respectively.
Turning to `CCC(=O)NC(c1ccccc1OC)c1ccc2cccnc2c1O` (stereo not given), the minimum inhibitory concentration (MIC) was 4 µg/mL (≈ 11.9 µM) in the series on Candida albicans [1], 16 µg/mL (≈ 47.6 µM) with Candida albicans [2] and 8 µg/mL (≈ 23.8 µM) with Candida albicans [3].
Consider `CCC(=O)NC(c1cccc([N+](=O)[O-])c1)c1ccc2cccnc2c1O` (stereo not given), for which the MIC in the series with Candida albicans [1], in the series with Candida albicans [2] and in the series with Candida albicans [3] was 4 µg/mL (≈ 11.4 µM) in each case.
Take `O=C(Cc1ccccc1)NC(c1ccc(Cl)cc1)c1ccc2cccnc2c1O` (stereo not given): the values for the MIC in the series on Candida albicans [1], with Candida albicans [2] and in the series with Candida albicans [3] were 2 µg/mL (≈ 4.96 µM), 1 µg/mL (≈ 2.48 µM) and 0.25 µg/mL (≈ 0.621 µM), respectively.
The like results for `OCCN1CCN(C(c2ccccc2)c2ccc3cccnc3c2O)CC1` (stereo not given) were, in that order, 1 µg/mL (≈ 2.75 µM), 1 µg/mL (≈ 2.75 µM) and 1 µg/mL (≈ 2.75 µM).
For the molecule `O=C(Cc1ccccc1)NC(c1ccc(OC(F)(F)F)cc1)c1ccc2cccnc2c1O` (stereo not given), the MIC in the series on Candida albicans [1] came out at 2 µg/mL (≈ 4.42 µM); with Candida albicans [2], 2 µg/mL (≈ 4.42 µM); in the series with Candida albicans [3], 1 µg/mL (≈ 2.21 µM).
Take `CC(C)C(=O)NC(c1ccc(Br)cc1)c1ccc2cccnc2c1O` (stereo not given): the MIC turned out to be 2 µg/mL (≈ 5.01 µM) in the series with Candida albicans [1], 1 µg/mL (≈ 2.5 µM) in the series on Candida albicans [2] and 0.5 µg/mL (≈ 1.25 µM) in the series with Candida albicans [3].
With `CC(C)C(=O)NC(c1cccc([N+](=O)[O-])c1)c1ccc2cccnc2c1O` (stereo not given), the values for the MIC with Candida albicans [1], in the series on Candida albicans [2] and in the series with Candida albicans [3] were 0.25 µg/mL (≈ 0.684 µM), 0.5 µg/mL (≈ 1.37 µM) and 0.25 µg/mL (≈ 0.684 µM), respectively.
On to `CCCC(=O)NC(c1ccc(N(C)C)cc1)c1ccc2cccnc2c1O` (stereo not given), for which the MIC in the series on Candida albicans [1] is 0.25 µg/mL (≈ 0.688 µM); in the series on Candida albicans [2], 0.5 µg/mL (≈ 1.38 µM); with Candida albicans [3], 0.25 µg/mL (≈ 0.688 µM).
As for `O=C(Cc1ccccc1)NC(c1ccc(Br)cc1)c1ccc2cccnc2c1O` (stereo not given), the MIC with Candida albicans [1] amounted to 2 µg/mL (≈ 4.47 µM); in the series on Candida albicans [2], 1 µg/mL (≈ 2.24 µM); with Candida albicans [3], 1 µg/mL (≈ 2.24 µM).
`O=C(Cc1ccccc1)NC(c1ccc(Cl)c(Cl)c1)c1ccc2cccnc2c1O` (stereo not given): the MIC turned out to be 0.5 µg/mL (≈ 1.14 µM) with Candida albicans [1], 1 µg/mL (≈ 2.29 µM) with Candida albicans [2] and 1 µg/mL (≈ 2.29 µM) in the series on Candida albicans [3].
Regarding `CC(C)C(=O)NC(c1ccccc1Cl)c1ccc2cccnc2c1O` (stereo not given), the MIC in the series on Candida albicans [1], with Candida albicans [2] and with Candida albicans [3] was 2 µg/mL (≈ 5.64 µM) in each case.
Turning to `O=C(Cc1ccccc1)NC(c1ccc(OC(F)F)cc1)c1ccc2cccnc2c1O` (stereo not given), the MIC with Candida albicans [1] is 1 µg/mL (≈ 2.3 µM); with Candida albicans [2] it was 0.5 µg/mL (≈ 1.15 µM); in the series on Candida albicans [3], 0.5 µg/mL (≈ 1.15 µM).
Take `CC(C)C(=O)NC(c1ccc(Cl)c(Cl)c1)c1ccc2cccnc2c1O` (stereo not given): the MIC with Candida albicans [1] stood at 1 µg/mL (≈ 2.57 µM); in the series on Candida albicans [2], 1 µg/mL (≈ 2.57 µM); in the series on Candida albicans [3] it was 0.25 µg/mL (≈ 0.642 µM).
As for `O=C(Cc1ccccc1)NC(c1ccc(F)cc1)c1ccc2cccnc2c1O` (stereo not given), the values for the MIC in the series on Candida albicans [1], in the series on Candida albicans [2] and in the series with Candida albicans [3] were 0.5 µg/mL (≈ 1.29 µM), 1 µg/mL (≈ 2.59 µM) and 1 µg/mL (≈ 2.59 µM), respectively.
Consider `CC(C)C(=O)NC(c1ccc(F)cc1)c1ccc2cccnc2c1O` (stereo not given), for which the MIC in the series with Candida albicans [1], with Candida albicans [2] and with Candida albicans [3] was 1 µg/mL (≈ 2.96 µM) each time.
On to `CC(C)C(=O)NC(c1ccc(F)c(Cl)c1)c1ccc2cccnc2c1O` (stereo not given), for which the figures for the minimal inhibitory concentration (MIC) in the series with Candida albicans [1], in the series on Candida albicans [2] and in the series on Candida albicans [3] were 0.5 µg/mL (≈ 1.34 µM), 0.5 µg/mL (≈ 1.34 µM) and 0.25 µg/mL (≈ 0.671 µM), respectively.
Take `O=C(Cc1ccccc1)NC(c1ccc(F)c(Cl)c1)c1ccc2cccnc2c1O` (stereo not given): the values for the MIC in the series on Candida albicans [1], in the series with Candida albicans [2] and in the series on Candida albicans [3] were 0.5 µg/mL (≈ 1.19 µM), 1 µg/mL (≈ 2.38 µM) and 0.5 µg/mL (≈ 1.19 µM), respectively.
With `Cc1ccc(C(NC(=O)CC(C)C)c2ccc3cccnc3c2O)cc1` (stereo not given), the MIC in the series with Candida albicans [1] worked out at 0.125 µg/mL (≈ 0.359 µM); with Cryptococcus neoformans [5], 0.016 µg/mL (≈ 0.0459 µM); in the series on Aspergillus fumigatus [6], 0.5 µg/mL (≈ 1.43 µM); with Candida tropicalis [7], 0.125 µg/mL (≈ 0.359 µM); in the series on Nakaseomyces glabratus [8] it was 0.125 µg/mL (≈ 0.359 µM); with Candida albicans [2], 0.125 µg/mL (≈ 0.359 µM). Further, the MIC in the series on Candida tropicalis [9] was found to be 0.032 µg/mL (≈ 0.0918 µM); in the series with Pichia kudriavzevii [10], 0.125 µg/mL (≈ 0.359 µM); with Aspergillus fumigatus [11] it was 0.5 µg/mL (≈ 1.43 µM); with Nakaseomyces glabratus [12], 0.125 µg/mL (≈ 0.359 µM); in the series on Candida albicans [3] it was 0.125 µg/mL (≈ 0.359 µM); with Pichia kudriavzevii [13], 0.125 µg/mL (≈ 0.359 µM). The MIC in the series with Aspergillus fumigatus [14] was 0.25 µg/mL (≈ 0.717 µM); in the series on Nakaseomyces glabratus [15] it was 0.125 µg/mL (≈ 0.359 µM); in the series on Cryptococcus neoformans [16] it was 0.016 µg/mL (≈ 0.0459 µM); in the series with Pichia kudriavzevii [17], 0.125 µg/mL (≈ 0.359 µM); in the series on Candida parapsilosis [18], 0.125 µg/mL (≈ 0.359 µM); in the series with Candida tropicalis [19], 0.032 µg/mL (≈ 0.0918 µM). Further, the values for the MIC in the series on Candida parapsilosis [20], with Cryptococcus neoformans [21] and in the series on Candida parapsilosis [22] were 0.125 µg/mL (≈ 0.359 µM), 0.016 µg/mL (≈ 0.0459 µM) and 0.032 µg/mL (≈ 0.0918 µM), respectively. The IC50 at 24 h in [4] was 32 µg/mL (≈ 91.8 µM).
